Target: T1, HNEAA81 (Homo sapiens, UniProt Q9BPV8)
T1 construct: expressed in transfected cells; host or cells: HEK-293 (transient co-transfection)
T1 sequence (Q9BPV8 1-333 isoform Q9BPV8-2): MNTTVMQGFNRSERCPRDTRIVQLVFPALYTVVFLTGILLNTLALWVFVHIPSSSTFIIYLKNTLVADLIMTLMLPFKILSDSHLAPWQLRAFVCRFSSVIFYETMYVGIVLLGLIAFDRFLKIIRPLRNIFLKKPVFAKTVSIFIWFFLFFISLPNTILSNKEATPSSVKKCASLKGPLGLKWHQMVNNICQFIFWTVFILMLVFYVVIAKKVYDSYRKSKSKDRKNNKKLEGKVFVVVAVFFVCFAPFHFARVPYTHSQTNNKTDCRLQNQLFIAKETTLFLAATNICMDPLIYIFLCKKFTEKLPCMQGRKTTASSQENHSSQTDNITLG
Assay: FLIPR calcium mobilisation response in HEK-293 cells transiently co-transfected with HNEAA81 and G-proteins
Format: cell-based
Conditions: for calcium mobilization response (in words): HEK-293 cells transfected with HNEAA81 and the G-proteins
Experimental: HEK-293 cells were transiently co-transfected with a mammalian expression plasmid encoding HNEAA81 polypeptide, along with cDNAs encoding either the promiscuous G-protein Gal6 or the chimeric G-proteins Gql5 or Gqo5and assayed on FLIPR (Fluorometric Imaging Plate Reader) for a calcium mobilisation response following addition of AP6A or AP5A or d-UDP.
A dose-dependent (EC50s ˜300 nM), calcium mobilization response was detected following addition of AP6A (response with AP5A or d-UDP not so strong) to cells transfected with HNEAA81 and the G-proteins. […] The cDNAs for both the receptor and the G-proteins had to be expressed in the HEK-293 in order to detect a functional response to these agonists.

| calcium mobilization response (in words) | EC50 (HEK-293 cells transfected with HNEAA81 and the G-proteins (Gal6 or Gql5 or Gqo5), read-out: EC50 of dose-dependent calcium mobilization response) [nM] | Structure (SMILES) |
| --- | --- | --- |
| not so strong |  | Nc1ncnc2c1ncn2C1OC(COP(=O)(O)OP(=O)(O)OP(=O)(O)OP(=O)(O)OP(=O)(O)OCC2OC(n3cnc4c(N)ncnc43)C(O)C2O)C(O)C1O (stereo not shown) [AP5A, di-adenosine pentaphosphate] |
| dose-dependent | ~300 | Nc1ncnc2c1ncn2C1OC(COP(=O)(O)OP(=O)(O)OP(=O)(O)OP(=O)(O)OP(=O)(O)OP(=O)(O)OCC2OC(n3cnc4c(N)ncnc43)C(O)C2O)C(O)C1O (stereo not shown) [AP6A, di-adenosine hexaphosphate] |
| not so strong |  | O=c1ccn(C2OC(COP(=O)(O)OP(=O)(O)O)CC2O)c(=O)[nH]1 (stereo not drawn) [d-UDP] |

Reference: patent publication US6358695B1, “Methods of screening for agonists and antagonists of the HNEAA81 receptor” (SmithKline Beecham Corporation, priority 1997, dated 2002)
